Laboratory results reported in paper PMC4436593, “Endoplasmic reticulum stress-independent activation of unfolded protein response kinases by a small molecule ATP-mimic” (eLife, 2015).

Assays:
[1] = target: T1, GST-PERK kinase domain (580–1077 aa) (Mus musculus, UniProt Q9Z2B5); assay: In vitro GST-PERK kinase assay (eIF2α phosphorylation with γ-[32P]-ATP)
T1 sequence (Q9Z2B5 580-1077): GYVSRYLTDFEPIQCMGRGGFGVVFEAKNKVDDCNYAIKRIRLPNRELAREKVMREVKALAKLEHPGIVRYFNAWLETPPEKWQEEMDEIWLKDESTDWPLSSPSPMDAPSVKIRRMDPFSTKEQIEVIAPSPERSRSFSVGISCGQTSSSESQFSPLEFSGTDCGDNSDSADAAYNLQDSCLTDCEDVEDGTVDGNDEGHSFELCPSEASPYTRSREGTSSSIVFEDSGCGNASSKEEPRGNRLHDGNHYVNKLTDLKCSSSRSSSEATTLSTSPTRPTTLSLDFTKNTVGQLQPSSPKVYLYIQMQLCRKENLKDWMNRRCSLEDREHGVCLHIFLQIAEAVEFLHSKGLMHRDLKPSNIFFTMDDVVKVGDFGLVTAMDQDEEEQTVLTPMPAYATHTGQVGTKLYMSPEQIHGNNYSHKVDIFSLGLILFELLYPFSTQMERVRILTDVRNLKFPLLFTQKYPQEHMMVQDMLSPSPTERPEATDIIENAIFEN

IRE1α-KR43 = IRE1α-KR43 (Homo sapiens, UniProt O75460); assay: FRET-based RNA cleavage assay (fluorescent HP17 substrate) of IRE1α-KR43 RNase activity
Sequence of IRE1α-KR43 (O75460 465-977 limits assumed): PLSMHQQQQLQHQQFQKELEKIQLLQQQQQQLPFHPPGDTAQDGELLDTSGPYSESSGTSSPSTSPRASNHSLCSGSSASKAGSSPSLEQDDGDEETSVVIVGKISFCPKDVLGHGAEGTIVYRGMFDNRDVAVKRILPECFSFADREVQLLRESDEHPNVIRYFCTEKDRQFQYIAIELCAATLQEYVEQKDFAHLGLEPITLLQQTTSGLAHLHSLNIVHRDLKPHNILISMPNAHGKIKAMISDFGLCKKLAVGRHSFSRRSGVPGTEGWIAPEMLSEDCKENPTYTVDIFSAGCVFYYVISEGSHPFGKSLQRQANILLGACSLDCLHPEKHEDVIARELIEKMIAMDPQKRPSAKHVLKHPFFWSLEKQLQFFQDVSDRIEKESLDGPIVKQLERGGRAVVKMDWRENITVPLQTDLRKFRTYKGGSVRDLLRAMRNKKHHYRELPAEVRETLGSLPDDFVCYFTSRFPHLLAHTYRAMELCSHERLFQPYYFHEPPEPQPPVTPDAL

Compound: CSc1ccc(NC(=O)Nc2ccc(Nc3nccc(Nc4cc(C5CC5)[nH]n4)n3)cc2)cc1 [IPA]
- IC50 [1]: 2800 nM
- EC50 (IRE1α-KR43): 360 nM
